Experimental data as given in PubChem BioAssay (NCI).
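1) Cells in 96-well plates. 2) Compound, 48 h, 5 concentrations. 3) Linear interpolation between surrounding doses. 4) Unreached endpoint = highest concentration. The concentration for 50% growth inhibition is given as GI50. TGI: total growth inhibition.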

Key:
Assay in all cases: inhibition of tumour cell growth, NCI panel, 48 h
[1] = system: 786-0 renal
[2] = system: A498 renal
[3] = system: A549 NSCLC
[4] = system: ACHN renal
[5] = system: BT-549 breast
[6] = system: CAKI-1 renal
[7] = system: CCRF-CEM leukemia
[8] = system: COLO 205 colon
[9] = system: DU-145 prostate
[10] = system: HCC-2998 colon
[11] = system: HCT-116 colon
[12] = system: HCT-15 colon
[13] = system: HL-60(TB) leukemia
[14] = system: HOP-62 NSCLC
[15] = system: HOP-92 NSCLC
[16] = system: HS 578T breast
[17] = system: HT29 colon
[18] = system: IGROV1 ovarian
[19] = system: K-562 leukemia
[20] = system: KM12 colon
[21] = system: LOX IMVI melanoma
[22] = system: M14 melanoma
[23] = system: MALME-3M melanoma
[24] = system: MCF7 breast
[25] = system: MDA-MB-231 breast
[26] = system: MDA-MB-435
[27] = system: MOLT-4 leukemia
[28] = system: NCI-H226 lung
[29] = system: NCI-H23 lung
[30] = system: NCI-H460 lung
[31] = system: NCI-H522 lung
[32] = system: NCI/ADR-RES ovarian
[33] = system: OVCAR-3 ovarian
[34] = system: OVCAR-4 ovarian
[35] = system: OVCAR-5 ovarian
[36] = system: OVCAR-8 ovarian
[37] = system: PC-3 prostate
[38] = system: RPMI-8226 leukemia
[39] = system: RXF 393 renal
[40] = system: SF-268 CNS
[41] = system: SF-539 CNS
[42] = system: SK-MEL-2 melanoma
[43] = system: SK-MEL-28 melanoma
[44] = system: SK-MEL-5 melanoma
[45] = system: SK-OV-3 ovarian
[46] = system: SN12C renal
[47] = system: SNB-19 CNS
[48] = system: SNB-75 CNS
[49] = system: SW-620 colon
[50] = system: T-47D breast
[51] = system: TK-10 renal
[52] = system: U251 CNS
[53] = system: UACC-257 melanoma
[54] = system: UACC-62 melanoma
[55] = system: UO-31 renal

For `O=c1c2ccc3cccc4c(=O)c5ccc6cccc1c6c5-c2c34`, which GI50 [1] is on record?
The GI50 was greater than 50 µM.

And the TGI [1]?
The TGI was greater than 50 µM.

What about the GI50 [2] of the same compound?
Its GI50 is greater than 50 µM.

What about the TGI [2] of the same compound?
Its TGI is greater than 50 µM.

What about the GI50 [3] of the same compound?
The GI50 was greater than 50 µM.

And the TGI [3]?
The TGI was greater than 50 µM.

What about the GI50 [4] of the same compound?
The GI50 was greater than 50 µM.

And the TGI [4]?
Its TGI is greater than 50 µM.

What about the GI50 [5] of the same compound?
The GI50 was greater than 50 µM.

What about the TGI [5] of the same compound?
Its TGI is greater than 50 µM.

What about the GI50 [6] of the same compound?
The GI50 was greater than 50 µM.

What about the TGI [6] of the same compound?
Its TGI is greater than 50 µM.

And the GI50 [7]?
Its GI50 is greater than 50 µM.

And the TGI [7]?
The TGI was greater than 50 µM.

What about the GI50 [8] of the same compound?
The GI50 was greater than 50 µM.

What about the TGI [8] of the same compound?
Its TGI is greater than 50 µM.

What about the GI50 [9] of the same compound?
Its GI50 is greater than 50 µM.

And the TGI [9]?
The TGI was greater than 50 µM.

What about the GI50 [10] of the same compound?
Its GI50 is greater than 50 µM.

And the TGI [10]?
Its TGI is greater than 50 µM.

What about the GI50 [11] of the same compound?
Its GI50 is greater than 50 µM.

What about the TGI [11] of the same compound?
Its TGI is greater than 50 µM.

And the GI50 [12]?
The GI50 was greater than 50 µM.

And the TGI [12]?
Its TGI is greater than 50 µM.

What about the GI50 [13] of the same compound?
Its GI50 is greater than 50 µM.

And the TGI [13]?
Its TGI is greater than 50 µM.

What about the GI50 [14] of the same compound?
The GI50 was greater than 50 µM.

And the TGI [14]?
The TGI was greater than 50 µM.

And the GI50 [15]?
The GI50 was greater than 50 µM.

And the TGI [15]?
Its TGI is greater than 50 µM.

What about the GI50 [16] of the same compound?
Its GI50 is greater than 50 µM.

And the TGI [16]?
Its TGI is greater than 50 µM.

And the GI50 [17]?
Its GI50 is greater than 50 µM.

And the TGI [17]?
The TGI was greater than 50 µM.

And the GI50 [18]?
The GI50 was greater than 50 µM.

What about the TGI [18] of the same compound?
The TGI was greater than 50 µM.

And the GI50 [19]?
The GI50 was greater than 50 µM.

And the TGI [19]?
Its TGI is greater than 50 µM.

And the GI50 [20]?
The GI50 was greater than 50 µM.

And the TGI [20]?
Its TGI is greater than 50 µM.

And the GI50 [21]?
The GI50 was greater than 50 µM.

What about the TGI [21] of the same compound?
The TGI was greater than 50 µM.

What about the GI50 [22] of the same compound?
Its GI50 is greater than 50 µM.

What about the TGI [22] of the same compound?
The TGI was greater than 50 µM.

And the GI50 [23]?
Its GI50 is greater than 50 µM.

What about the TGI [23] of the same compound?
The TGI was greater than 50 µM.

What about the GI50 [24] of the same compound?
Its GI50 is greater than 50 µM.

And the TGI [24]?
Its TGI is greater than 50 µM.

What about the GI50 [25] of the same compound?
The GI50 was greater than 50 µM.

And the TGI [25]?
Its TGI is greater than 50 µM.

What about the GI50 [26] of the same compound?
The GI50 was greater than 50 µM.

And the TGI [26]?
Its TGI is greater than 50 µM.

And the GI50 [27]?
Its GI50 is greater than 50 µM.

And the TGI [27]?
Its TGI is greater than 50 µM.

What about the GI50 [28] of the same compound?
Its GI50 is greater than 50 µM.

What about the TGI [28] of the same compound?
The TGI was greater than 50 µM.

And the GI50 [29]?
The GI50 was greater than 50 µM.

And the TGI [29]?
Its TGI is greater than 50 µM.

What about the GI50 [30] of the same compound?
Its GI50 is greater than 50 µM.

And the TGI [30]?
The TGI was greater than 50 µM.

And the GI50 [31]?
Its GI50 is greater than 50 µM.

What about the TGI [31] of the same compound?
Its TGI is greater than 50 µM.

What about the GI50 [32] of the same compound?
The GI50 was greater than 50 µM.

What about the TGI [32] of the same compound?
Its TGI is greater than 50 µM.

What about the GI50 [33] of the same compound?
Its GI50 is greater than 50 µM.

What about the TGI [33] of the same compound?
The TGI was greater than 50 µM.

What about the GI50 [34] of the same compound?
Its GI50 is greater than 50 µM.

And the TGI [34]?
The TGI was greater than 50 µM.

What about the GI50 [35] of the same compound?
The GI50 was greater than 50 µM.

And the TGI [35]?
The TGI was greater than 50 µM.

And the GI50 [36]?
The GI50 was greater than 50 µM.

What about the TGI [36] of the same compound?
The TGI was greater than 50 µM.

What about the GI50 [37] of the same compound?
Its GI50 is greater than 50 µM.

And the TGI [37]?
Its TGI is greater than 50 µM.

What about the GI50 [38] of the same compound?
Its GI50 is greater than 50 µM.

And the TGI [38]?
The TGI was greater than 50 µM.

What about the GI50 [39] of the same compound?
The GI50 was greater than 50 µM.

What about the TGI [39] of the same compound?
Its TGI is greater than 50 µM.

And the GI50 [40]?
The GI50 was greater than 50 µM.

What about the TGI [40] of the same compound?
The TGI was greater than 50 µM.

And the GI50 [41]?
Its GI50 is greater than 50 µM.

What about the TGI [41] of the same compound?
Its TGI is greater than 50 µM.

And the GI50 [42]?
The GI50 was greater than 50 µM.

And the TGI [42]?
Its TGI is greater than 50 µM.

What about the GI50 [43] of the same compound?
The GI50 was greater than 50 µM.

And the TGI [43]?
The TGI was greater than 50 µM.

What about the GI50 [44] of the same compound?
The GI50 was greater than 50 µM.

What about the TGI [44] of the same compound?
The TGI was greater than 50 µM.

And the GI50 [45]?
Its GI50 is greater than 50 µM.

What about the TGI [45] of the same compound?
The TGI was greater than 50 µM.

What about the GI50 [46] of the same compound?
Its GI50 is greater than 50 µM.

And the TGI [46]?
Its TGI is greater than 50 µM.

What about the GI50 [47] of the same compound?
Its GI50 is greater than 50 µM.

And the TGI [47]?
The TGI was greater than 50 µM.

What about the GI50 [48] of the same compound?
Its GI50 is greater than 50 µM.

What about the TGI [48] of the same compound?
The TGI was greater than 50 µM.

And the GI50 [49]?
The GI50 was greater than 50 µM.

And the TGI [49]?
The TGI was greater than 50 µM.

And the GI50 [50]?
The GI50 was greater than 50 µM.

What about the TGI [50] of the same compound?
Its TGI is greater than 50 µM.

What about the GI50 [51] of the same compound?
Its GI50 is greater than 50 µM.

What about the TGI [51] of the same compound?
The TGI was greater than 50 µM.

What about the GI50 [52] of the same compound?
The GI50 was greater than 50 µM.

What about the TGI [52] of the same compound?
Its TGI is greater than 50 µM.

And the GI50 [53]?
The GI50 was greater than 50 µM.

And the TGI [53]?
Its TGI is greater than 50 µM.

And the GI50 [54]?
The GI50 was greater than 50 µM.

And the TGI [54]?
Its TGI is greater than 50 µM.

What about the GI50 [55] of the same compound?
Its GI50 is greater than 50 µM.

And the TGI [55]?
Its TGI is greater than 50 µM.
